Experiment [1] concerns hearts isolated from rabbits. As to the kind of experiment: Cardioprotective effects on isolated rabbit hearts subjected to regional ischaemia and reinfusion. Details: left ventricular pressure, percentage of preischaemic recovery / contracture during reinfusion / maximum and minimum dP/dt values and double frequency-pressure product: dose or concentration left out as unconfirmed. How it is done: Study of the Cardioprotective Effects
The cardioprotective effects were studied on hearts isolated from rabbits subjected to a regional ischaemia and to a reinfusion. The size of infarction as well as the recovery of the contractile function upon reinfusion were measured.
New Zealand rabbits (2.3 to 2.5 kg, ESD France) are anaesthetized with a ketamine-xylasine mixture and heparinized. The heart is removed and rapidly infused by the retrograde aortic route at a pressure of 75 mmHg with a Krebs Henselheit-type solution. A balloon is introduced into the left ventricle and a telediastolic pressure of 5 mmHg is applied. After a stabilizing period of 20 min, the compound to be studied (1 mM) or the vehicle is added to the infusion solution 15 min before the ischaemia and during the entire duration of the experiment. The regional ischaemia is created by complete ligation of the left coronary artery for 30 min, the heart then being reinfused for 2 h.
The ventricular pressure, heart rate and coronary output parameters are monitored during the whole experiment.
After the reinfusion, the coronary artery is again occluded and China ink is infused in order to delimit the area at risk. Transverse sections are then prepared and incubated in a 1% triphenyltetrazolium solution so as to measure the size of the infarction. The quantification of the necrosed area, expressed as % of the area at risk, is obtained by means of image-analysing software.

The test system of experiment [2] is kidneys (renal ischaemia-reinfusion). As to the kind of experiment: Renoprotective effects, renal artery occlusion-reinfusion in rats. It is filed as in vivo, rat. To be noted: 3 mg/kg i.p. 60 min before the occlusion. How it is done:
Study of the Renoprotective Effects
The experiment is carried out on Sprague-Dawley male rats (Charles River France) of 270 to 330 g. The animals are anaesthetized with pentobarbital (60 mg/kg i.p.), intubated and artificially ventilated, their temperature is maintained between 37 and 38° C.
A 3 cm laparotomy is performed on the animal in dorsal decubitus, the right and left renal arteries are exposed and occluded for 30 min, and then the kidneys are reinfused under visual monitoring and the incision is closed. The serum creatinine and urea nitrogen levels are determined from blood samples collected in the orbital sinus, at D0 (before anaesthesia), and then at D1, D2, D3, D4, D8 (after 1 occlusion-reinfusion).
The compound to be studied, or its vehicle (Tween 80 at 2%) is administered at the dose of 3 mg/kg by the i.p. route 60 min before the occlusion.

Experiment [3] deals with motoneurons of the facial nucleus. As to the kind of experiment: Survival of the motoneurons after cutting of the facial nerve in 4-day-old rats. It is filed as in vivo, rat. The settings on record: 7 d treatment, i.p. route. How it is done:
Test of Survival of the Motoneurons After Cutting of the Facial Nerve in 4-day-old Rats
After lesioning of the facial nerve in immature rats, the motoneurons of the facial nucleus undergo neuronal death by apoptosis. The evaluation of neuronal survival is carried out using histological and neuronal counting methods.
4-Day-old immature rats are anaesthetized with pentobarbital (3 mg/kg by the i.p. route). The right facial nerve is exposed and cut, where it leaves the stylomastoid foramen. After regaining consciousness, the young rats are returned to their mothers and treated, for 7 d, by one or two daily administrations, by the oral or intraperitoneal route, at doses ranging from 1 to 10 mg/kg. 7 d after the lesioning, the animals are decapitated and the brains frozen in isopentane at −40° C. The facial nucleus is cut using a cryostat, into 10 μm sections, in its entirety. The motoneurons are stained with cresyl violet and counted with the aid of the Histo™ software (Biocom™).

`CN(C)C(=O)Cc1nn(-c2ccccc2)c(=O)c2c1c1ccc(Cl)cc1n2C` [Compound No. 1, 7-Chloro-N,N,5-trimethyl-4-oxo-3-phenyl-3,5-dihydro-4H-pyridazino[4,5-b]indole-1-acetamide]: the contracture during reinfusion result in experiment [1] was “reduces the contracture”. In addition, the “left ventricular pressure, percentage of preischaemic recovery” value in experiment [1] (after 2 h of reinfusion) amounted to 65%. The “size of the infarction (necrosed area, expressed as % of the area at risk)” value in experiment [1] (compound 1 mM in infusion solution, 30 min ischaemia, 2 h reinfusion) is 22±3.3 % of the area at risk. Further, in experiment [1] (compound 1 mM in infusion solution, 30 min ischaemia, 2 h reinfusion, vs controls, p<0.01), the “reduction in the size of the infarction” value is reported as 47%. Further, the “maximum and minimum dP/dt values and double frequency-pressure product” value in experiment [1] (during reinfusion) was “significantly restores”. In experiment [2] (at D3), the “reduction of creatininaemia compared with the vehicle” value turned out to be 56% and the “reduction of uraemia compared with the vehicle” value came to 49%. The “mortality in the animals” value in experiment [2] (dead/total animals) was 1/12. Also, the “increase in neuronal survival” value in experiment [3] was determined as 31%.

Values taken from patent US6395729B1, “Use of pyridazino[4,5-b]indole-1-acetamide derivatives for preparing medicines for treating diseases related to the dysfunction of peripheral benzodiazepin receptors” (Sanofi-Synthelabo, priority 1999, dated 2002).
